Bridge positions count the residues as written; N and C are the ends. Square brackets hold non-standard residues; d marks the D form. Peptide text beside a SMILES is read from it. * marks the point of attachment. ξ: configuration not given here. Bip = N[C@@H](Cc1ccc(-c2ccccc2)cc1)C(=O)O; Phe(4-CN) = N#Cc1ccc(C[C@H](N)C(=O)O)cc1; NH(CH2)14COOH = O=C(O)CCCCCCCCCCCCCCN*; Phe(3-Me) = Cc1cccc(C[C@H](N)C(=O)O)c1; Val(3-OH) = CC(C)(O)[C@H](N)C(=O)O; hArg = N=C(N)NCCCC[C@H](N)C(=O)O; Cha = N[C@@H](CC1CCCCC1)C(=O)O; Cit = NC(=O)NCCC[C@H](N)C(=O)O; Thr(3ξ) = CC(O)[C@H](N)C(=O)O; NMeNle = CCCC[C@H](NC)C(=O)O; 12Ado = NCCCCCCCCCCCC(=O)O; Carboxymethyl = O=C(O)C*; Orn = NCCC[C@H](N)C(=O)O; Aun = NCCCCCCCCCCC(=O)O; Dab = NCC[C@H](N)C(=O)O; Dap = NC[C@H](N)C(=O)O; AEEA = NCCOCCOCC(=O)O

Drawing on US20260022142A1, “MACROCYCLIC IMMUNOMODULATORS” (Bristol-Myers Squibb Company, priority 2022, published 2026), this text covers IC50 for 13 molecules.

The target of the test is T1, PD-1/PD-L1 interaction (PE-labeled human PD-L1-Ig binding to Jurkat cell line over-expressing human PD-1) (Homo sapiens, UniProt Q15116).
T1 construct: expressed in transfected cells; host or cells: Jurkat
T1 sequence (Q15116 25-288): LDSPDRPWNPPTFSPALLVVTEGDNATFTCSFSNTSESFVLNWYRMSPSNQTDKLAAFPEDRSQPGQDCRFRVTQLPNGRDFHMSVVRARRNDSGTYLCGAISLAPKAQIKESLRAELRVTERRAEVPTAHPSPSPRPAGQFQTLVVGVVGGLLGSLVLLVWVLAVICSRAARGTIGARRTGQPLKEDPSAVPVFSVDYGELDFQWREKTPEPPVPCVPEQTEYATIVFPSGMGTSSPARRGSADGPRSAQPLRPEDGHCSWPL
The test is described as follows: Jurkat-PD-1 Cell Binding High-Content Screening Assay (CBA). Format: cell-based. To be noted: Jurkat cell line over-expressing human PD-1; PE-labeled PD-L1-Ig 20 nM final; read-out: Jurkat hPD1-PDL1 IC50. In short, it runs like this: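 Jurkat-hPD-1 cells, DMEM/10% FCS; cpd 2 h 37° C; PE-PD-L1-Ig 20 nM final, 1 h; 4% PFA fix + Hoechst 33342, 3× dPBS wash; high-content imaging read-out.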
For `Cc1cccc(C[C@@H]2NC(=O)[C@H](CC(=O)O)NC(=O)[C@H](Cc3ccc(OCC(=O)O)cc3)NC(=O)[C@H](CCCNC(=N)N)NC(=O)CSC[C@@H](C(=O)N[C@H](CO)C(=O)NCCCCCCCCCCCC(=O)O)NC(=O)[C@H](C(C)O)NC(=O)[C@H](C(C)C)NC(=O)[C@H](CC3CCCCC3)NC(=O)[C@H](CCN)NC(=O)[C@@H](CC(C)C)NC(=O)[C@H](CCCN)NC(=O)[C@H](CCCNC(N)=O)NC(=O)[C@H](Cc3ccc(-c4ccccc4)cc3)NC(=O)[C@H](C(C)C)NC2=O)c1` (stereo partly drawn) [Compound 3561] ({CH2CO}-RY(Carboxymethyl)D[Phe(3-Me)]V[Bip][Cit][Orn][dL][Dab][Cha]V[Thr(3ξ)]C[dS][12Ado]-OH; thioether N-14), the IC50 turned out to be 0.0405 µM. The result for `Cc1cccc(C[C@@H]2NC(=O)[C@H](CC(=O)O)NC(=O)[C@H](Cc3ccc(OCC(=O)O)cc3)NC(=O)[C@H](CN)NC(=O)CSC[C@@H](C(=O)N[C@@H](CCN)C(=O)NCCOCCOCC(=O)NCCCCCCCCCCC(=O)O)NC(=O)[C@H](CCCN)NC(=O)[C@H](Cc3ccc(O)cc3)NC(=O)[C@H](CC3CCCCC3)NC(=O)[C@H](CCN)NC(=O)[C@@H](CC(C)C)NC(=O)[C@H](CCCN)NC(=O)[C@H](C(C)C)NC(=O)[C@H](Cc3ccc(-c4ccccc4)cc3)NC(=O)[C@H](C(C)C)NC2=O)c1` [Compound 2586] ({CH2CO}-[Dap]Y(Carboxymethyl)D[Phe(3-Me)]V[Bip]V[Orn][dL][Dab][Cha]Y[Orn]C[Dab][AEEA][Aun]-OH; thioether N-14) reads 0.0222 µM; that for `Cc1cccc(C[C@@H]2NC(=O)[C@H](CC(=O)O)NC(=O)[C@H](Cc3ccc(OCC(=O)O)cc3)NC(=O)[C@H](CN)NC(=O)CSC[C@@H](C(=O)N[C@@H](CCN)C(=O)NCCCCCCCCCCCCCCC(=O)O)NC(=O)[C@H](CO)NC(=O)[C@H](C(C)(C)O)NC(=O)[C@H](CC3CCCCC3)NC(=O)[C@H](CCN)NC(=O)[C@@H](CC(C)C)NC(=O)[C@H](CCCN)NC(=O)[C@H](Cc3ccc(OCC(=O)O)cc3)NC(=O)[C@H](Cc3ccc(-c4ccccc4)cc3)NC(=O)[C@H](Cc3ccc(OCC(=O)O)cc3)NC2=O)c1` [Compound 2223] ({CH2CO}-[Dap]Y(Carboxymethyl)D[Phe(3-Me)]Y(Carboxymethyl)[Bip]Y(Carboxymethyl)[Orn][dL][Dab][Cha][Val(3-OH)]SC[Dab]-{NH(CH2)14COOH}; thioether N-14), 0.28 µM. As for `Cc1cccc(C[C@@H]2NC(=O)[C@H](CC(=O)O)NC(=O)[C@H](Cc3ccc(OCC(=O)O)cc3)NC(=O)[C@H](CN)NC(=O)CSC[C@@H](C(=O)N[C@@H](CCN)C(=O)NCCOCCOCC(=O)NCCCCCCCCCCC(=O)O)NC(=O)[C@H](CCCN)NC(=O)[C@H](C(C)C)NC(=O)[C@H](CC3CCCCC3)NC(=O)[C@H](CCN)NC(=O)[C@@H](CC(C)C)NC(=O)[C@H](CCCN)NC(=O)[C@H](Cc3ccc(O)cc3)NC(=O)[C@H](Cc3ccc(-c4ccccc4)cc3)NC(=O)[C@H](Cc3ccc(C#N)cc3)NC2=O)c1` [Compound 2071] ({CH2CO}-[Dap]Y(Carboxymethyl)D[Phe(3-Me)][Phe(4-CN)][Bip]Y[Orn][dL][Dab][Cha]V[Orn]C[Dab][AEEA][Aun]-OH; thioether N-14), the figure is 0.0048 µM; as for `CCCC[C@H]1C(=O)N[C@@H](Cc2ccc(OCC(=O)O)cc2)C(=O)N[C@@H](CC(=O)O)C(=O)N[C@@H](Cc2cccc(C)c2)C(=O)N[C@@H](Cc2ccc(OCC(=O)O)cc2)C(=O)N[C@@H](Cc2ccc(-c3ccccc3)cc2)C(=O)N[C@@H](Cc2ccc(OCC(=O)O)cc2)C(=O)N[C@@H](CCCN)C(=O)N[C@H](CC(C)C)C(=O)N[C@@H](CCN)C(=O)N[C@@H](CC2CCCCC2)C(=O)N[C@@H](C(C)(C)O)C(=O)N[C@@H](CO)C(=O)N[C@H](C(=O)N[C@@H](CCN)C(=O)NCCCCCCCCCCC(=O)O)CSCC(=O)N1C` [Compound 3635] ({CH2CO}-[NMeNle]Y(Carboxymethyl)D[Phe(3-Me)]Y(Carboxymethyl)[Bip]Y(Carboxymethyl)[Orn][dL][Dab][Cha][Val(3-OH)]SC[Dab][Aun]-OH; thioether N-14), 0.0349 µM. As for `CC(C)C[C@H]1NC(=O)[C@H](CCCN)NC(=O)[C@H](C(C)C)NC(=O)[C@H](Cc2ccc(-c3ccccc3)cc2)NC(=O)[C@H](C(C)C)NC(=O)[C@H](Cc2c[nH]c3ccccc23)NC(=O)[C@H](CC(=O)O)NC(=O)[C@H](Cc2ccc(OCC(=O)O)cc2)NC(=O)[C@H](CCCCNC(=N)N)NC(=O)CSC[C@@H](C(=O)N[C@@H](CCN)C(=O)NCCCCCCCCCCC(=O)O)NC(=O)[C@H](C(C)O)NC(=O)[C@H](C(C)C)NC(=O)[C@H](CC2CCCCC2)NC(=O)[C@H](CCN)NC1=O` (stereo partly drawn) [Compound 3267] ({CH2CO}-[hArg]Y(Carboxymethyl)DWV[Bip]V[Orn][dL][Dab][Cha]V[Thr(3ξ)]C[Dab][Aun]-OH; thioether N-14), the figure is 0.0163 µM; as for `CCC(C)[C@@H]1NC(=O)[C@H](Cc2ccc(-c3ccccc3)cc2)NC(=O)[C@H](C(C)C)NC(=O)[C@H](Cc2cccc(C)c2)NC(=O)[C@H](CC(=O)O)NC(=O)[C@H](Cc2ccc(OCC(=O)O)cc2)NC(=O)[C@H](C(C)O)NC(=O)CSC[C@@H](C(=O)N[C@H](CCN)C(=O)NCCCCCCCCCCCC(=O)O)NC(=O)[C@H](C(C)O)NC(=O)[C@H](C(C)C)NC(=O)[C@H](CC2CCCCC2)NC(=O)[C@H](CCN)NC(=O)[C@@H](CC(C)C)NC(=O)[C@H](CCCN)NC1=O` (stereo partly shown) [Compound 3092], 0.022 µM; as for `Cc1cccc(C[C@@H]2NC(=O)[C@H](CC(=O)O)NC(=O)[C@H](Cc3ccc(OCC(=O)O)cc3)NC(=O)[C@H](CN)NC(=O)CSC[C@@H](C(=O)N[C@@H](CCN)C(=O)NCCOCCOCC(=O)NCCCCCCCCCCC(=O)O)NC(=O)[C@H](C(C)O)NC(=O)[C@H](C(C)C)NC(=O)[C@H](CC3CCCCC3)NC(=O)[C@H](CCN)NC(=O)[C@@H](CC(C)C)NC(=O)[C@H](CCCN)NC(=O)[C@H](Cc3ccc(O)cc3)NC(=O)[C@H](Cc3ccc(-c4ccccc4)cc3)NC(=O)[C@H](Cc3ccc(O)cc3)NC2=O)c1` (stereo partly drawn) [Compound 2575] ({CH2CO}-[Dap]Y(Carboxymethyl)D[Phe(3-Me)]Y[Bip]Y[Orn][dL][Dab][Cha]V[Thr(3ξ)]C[Dab][AEEA][Aun]-OH; thioether N-14), 0.0102 µM. `Cc1cccc(C[C@@H]2NC(=O)[C@H](CC(=O)O)NC(=O)[C@H](Cc3ccc(OCC(=O)O)cc3)NC(=O)[C@H](CCCNC(=N)N)NC(=O)CSC[C@@H](C(=O)N[C@H](CC(N)=O)C(=O)NCCCCCCCCCCC(=O)O)NC(=O)[C@H](C(C)O)NC(=O)[C@H](CO)NC(=O)[C@H](CC3CCCCC3)NC(=O)[C@H](CCN)NC(=O)[C@@H](CC(C)C)NC(=O)[C@H](CCCN)NC(=O)[C@H](Cc3ccc(OCC(=O)O)cc3)NC(=O)[C@H](Cc3ccc(-c4ccccc4)cc3)NC(=O)[C@H](Cc3ccc(OCC(=O)O)cc3)NC2=O)c1` (stereo partly drawn) [Compound 3515] ({CH2CO}-RY(Carboxymethyl)D[Phe(3-Me)]Y(Carboxymethyl)[Bip]Y(Carboxymethyl)[Orn][dL][Dab][Cha]S[Thr(3ξ)]C[dN][Aun]-OH; thioether N-14): the IC50 was 0.169 µM. The result for `Cc1cccc(C[C@@H]2NC(=O)[C@H](CC(=O)O)NC(=O)[C@H](Cc3ccc(OCC(=O)O)cc3)NC(=O)[C@H](CCN)NC(=O)CSC[C@@H](C(=O)N[C@@H](CCN)C(=O)N[C@@H](CO)C(=O)NCCCCCCCCCCCC(=O)O)NC(=O)[C@H](CCCN)NC(=O)[C@H](C(C)O)NC(=O)[C@H](CC3CCCCC3)NC(=O)[C@H](CCN)NC(=O)[C@@H](CC(C)C)NC(=O)[C@H](CCCN)NC(=O)[C@H](Cc3ccc(OCC(=O)O)cc3)NC(=O)[C@H](Cc3ccc(-c4ccccc4)cc3)NC(=O)[C@H](Cc3ccc(OCC(=O)O)cc3)NC2=O)c1` (stereo partly drawn) [Compound 3636] ({CH2CO}-[Dab]Y(Carboxymethyl)D[Phe(3-Me)]Y(Carboxymethyl)[Bip]Y(Carboxymethyl)[Orn][dL][Dab][Cha][Thr(3ξ)][Orn]C[Dab]S[12Ado]-OH; thioether N-14) reads 0.0209 µM; that for `Cc1cccc(C[C@@H]2NC(=O)[C@H](CC(=O)O)NC(=O)[C@H](Cc3ccc(OCC(=O)O)cc3)NC(=O)[C@H](CCCNC(=N)N)NC(=O)CSC[C@@H](C(=O)N[C@@H](CCCCN)C(=O)N[C@@H](CO)C(=O)NCCCCCCCCCCCC(=O)O)NC(=O)[C@H](CN)NC(=O)[C@H](C(C)C)NC(=O)[C@H](CC3CCCCC3)NC(=O)[C@H](CCN)NC(=O)[C@@H](CC(C)C)NC(=O)[C@H](CCCN)NC(=O)[C@H](CCCNC(N)=O)NC(=O)[C@H](Cc3ccc(-c4ccccc4)cc3)NC(=O)[C@H](C(C)C)NC2=O)c1` [Compound 3534] ({CH2CO}-RY(Carboxymethyl)D[Phe(3-Me)]V[Bip][Cit][Orn][dL][Dab][Cha]V[Dap]CKS[12Ado]-OH; thioether N-14), 0.0226 µM. The result for `Cc1cccc(C[C@@H]2NC(=O)[C@H](CC(=O)O)NC(=O)[C@H](Cc3ccc(OCC(=O)O)cc3)NC(=O)[C@H](CN)NC(=O)CSC[C@@H](C(=O)N[C@@H](CCN)C(=O)NCCCCCCCCCCC(=O)O)NC(=O)[C@H](CO)NC(=O)[C@H](C(C)C)NC(=O)[C@H](CC3CCCCC3)NC(=O)[C@H](CCN)NC(=O)[C@@H](CC(C)C)NC(=O)[C@H](CCCN)NC(=O)[C@H](Cc3ccc(O)cc3)NC(=O)[C@H](Cc3ccc(-c4ccccc4)cc3)NC(=O)[C@H](Cc3ccc(OCC(=O)O)cc3)NC2=O)c1` [Compound 2091] ({CH2CO}-[Dap]Y(Carboxymethyl)D[Phe(3-Me)]Y(Carboxymethyl)[Bip]Y[Orn][dL][Dab][Cha]VSC[Dab][Aun]-OH; thioether N-14) reads 0.0261 µM; that for `CC(C)C[C@@H]1NC(=O)[C@H](Cc2c[nH]c3ccccc23)NC(=O)[C@H](CC(=O)O)NC(=O)[C@H](Cc2ccc(OCC(=O)O)cc2)NC(=O)[C@H](CN)NC(=O)CSC[C@@H](C(=O)N[C@@H](CCN)C(=O)NCCCCCCCCCCC(=O)O)NC(=O)[C@H](Cc2cnc[nH]2)NC(=O)[C@H](C(C)C)NC(=O)[C@H](CC2CCCCC2)NC(=O)[C@H](CCN)NC(=O)[C@@H](CC(C)C)NC(=O)[C@H](CCCN)NC(=O)[C@H](C(C)C)NC(=O)[C@H](Cc2ccc(-c3ccccc3)cc2)NC1=O` [Compound 3688] ({CH2CO}-[Dap]Y(Carboxymethyl)DWL[Bip]V[Orn][dL][Dab][Cha]VHC[Dab][Aun]-OH; thioether N-14), 0.0173 µM.

What is called IC50 is the midpoint of a concentration-inhibition curve.
